Results as given in patent US20140094462A1, “SONIC HEDGEHOG MODULATORS” (priority 2009, published 2014).
Like-named read-outs stand apart in the source and are kept apart here.

Key:
Gli1 = experiment: Primary keratinocyte cell culture, reduction in Gli mRNA; type: cell-based; conditions: primary human keratinocytes
Method: To study the potency of the compounds of the invention in cells, select compounds of the invention were conducted with keratinocytes and the reduction in Gli mRNA was measured. Culturing of primary human keratinocytes was previously described (Nguyen, B. C., et al., Genes & Dev. 20:1028-1042 (2006)). The full thickness skin model, EpiDermFT System (MatTek, Ashland), consisted of normal, human-derived epidermal keratinocytes and normal, human-derived dermal fibroblasts which have been cultured to form a multilayered, highly differentiated model of the human dermis and epidermis. […] Gene expression is compared by quantifying mRNA levels by real time RT-PCR. For this, total RNA preparations […] are used in a reverse transcriptase reaction with a mix of oligonucleotide dT and random hexamer primers, followed by real time PCR with gene-specific primers (Gli1: Qiagen Quantitect PrimerAssay QT00060501; Gli2: Qiagen Quantitect PrimerAssay QT00018648), using an […] real time detection system (Bio-Rad) according to the manufacturer's recommendation, with SYBR Green (Bio-Rad) for detection.

ShhN protein = target: T1, ShhN protein (Homo sapiens, UniProt Q15465); experiment: Surface Plasmon Resonance (SPR) protein binding assay on immobilized ShhN
T1 construct: auto-cleavage of full length Shh into an active 20 kD N-terminal fragment (ShhN); purchased R&D Systems
T1 sequence (Q15465 24-197 limits assumed, species assumed): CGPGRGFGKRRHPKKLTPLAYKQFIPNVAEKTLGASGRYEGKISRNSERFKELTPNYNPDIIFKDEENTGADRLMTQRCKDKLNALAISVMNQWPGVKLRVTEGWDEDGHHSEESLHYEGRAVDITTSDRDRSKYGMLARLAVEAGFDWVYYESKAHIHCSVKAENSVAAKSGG
Method: Biacore™ T100 (GE Healthcare, Uppsala, Sweden) was used to perform the experiments described herein. Sensor surface preparation and interaction analyses experiments were performed at 25° C.
Control surfaces were prepared similarly without protein derivatization and were utilized as a reference surfaces for compound binding experiments.
Zero concentration blank buffer cycles were included as negative control samples.
Data analysis was carried out using Biacore T100 evaluation software v1.1.1. […] Solvent correction was then applied as described previously.

C3H10T1/2 = experiment: Induction of osteogenic differentiation (modulation of osteoblast differentiation); conditions: Mus musculus, C3H 10T1/2, read-out: IC50 (nM) C3H10T1/2
Excerpt: Using assays previously described in Dwyer et al., J. Biol. Chem. 282, (2007), 8959-68 and Nakamura et al., Biochm. […] Res. Comm., 237 (1997) 465-9, select compounds of the invention were screened for their ability to modulate osteoblast differentiation.

[1] = rcm bond, toluene
[2] = SPR, Biacore T100, ShhN immobilized on CM4 chip, 25° C., compound 0.78 μM-25 μM, read-out: KD

`O=C(CCc1ccc(Cl)cc1)N[C@@H]1C/C=C/CCC(=O)O[C@H](c2ccccc2)CNC1=O` [CA] gave an IC50 (Gli1) of over 100000 nM.

For `CCN(CC)CCCNC(=O)C[C@@H]1C/C=C/CCC(=O)O[C@H](c2ccccc2)CNC1=O` [EG], the Kd (ShhN protein; [2]) was over 100000 nM and the IC50 (Gli1) was 1000 to 100000 nM.

`CCOCCNC(=O)C[C@@H]1C/C=C/CCC(=O)O[C@H](c2ccccc2)CNC1=O` [EH] showed a Kd (ShhN protein; [2]) of over 100000 nM and an IC50 (Gli1) of 1000 to 100000 nM.

Molecule `CCCCN1CCC(CNC(=O)C[C@@H]2C/C=C/CCC(=O)O[C@H](c3ccccc3)CNC2=O)CC1` [EI] has a Kd (ShhN protein; [2]) of over 100000 nM and an IC50 (Gli1) of 1000 to 100000 nM.

Work on `O=C(C[C@@H]1C/C=C/CCC(=O)O[C@H](c2ccccc2)CNC1=O)NC1CCCc2ccccc21` (stereo partly shown) [ER] yielded a Kd (ShhN protein; [2]) of 1000 to 100000 nM and an IC50 (Gli1) of 100 to 1000 nM.

In the case of `O=C(C[C@@H]1C[C@@H]2O[C@H]2CCC(=O)O[C@H](c2ccccc2)CNC1=O)NCc1ccc(Cl)cc1` [Example BY, N-(4-chlorobenzyl)-2-((1S,6R,10S,12S)-4,9-dioxo-6-phenyl-5,13-dioxa-8-azabicyclo[10.1.0]tridecan-10-yl)acetamide], the Kd (ShhN protein; [2]) is reported as 100 to 1000 nM and the IC50 (Gli1) is reported as under 100 nM.

In the case of `O=C(C[C@@H]1C[C@H](O)[C@@H](O)CCC(=O)O[C@H](c2ccccc2)CNC1=O)NCc1ccc(Cl)cc1` [Example BZ, N-(4-chlorobenzyl)-2-((2R,6S,8S,9S)-8,9-dihydroxy-5,12-dioxo-2-phenyl-1-oxa-4-azacyclododecan-6-yl)acetamide], the Kd (ShhN protein; [2]) is reported as 1000 to 100000 nM and the IC50 (Gli1) is reported as 100 to 1000 nM.

With `O=C1CC/C=C/CCC(=O)O[C@H](c2ccccc2)CN1` [Example CB, (R,E)-2-phenyl-1-oxa-4-azacyclododec-8-ene-5,12-dione] the Kd (ShhN protein; [2]) was over 100000 nM and the IC50 (Gli1) was 100 to 1000 nM.

In the case of `O=C(C[C@@H]1C[C@@H]2O[C@H]2CCC(=O)N[C@H](c2ccccc2)COC1=O)NCc1ccc(Cl)cc1` [Example CD, N-(4-chlorobenzyl)-2-((1S,3S,7R,12S)-4,9-dioxo-7-phenyl-5,13-dioxa-8-azabicyclo[10.1.0]tridecan-3-yl)acetamide], the Kd (ShhN protein; [2]) is reported as 1000 to 100000 nM and the IC50 (Gli1) is reported as 1000 to 100000 nM.

`O=C1CC/C=C/C[C@@H](CC(=O)N2CCCCC2)C(=O)NC[C@@H](c2ccccc2)O1` [Example CQ, (2R,6S,E)-6-(2-oxo-2-(piperidin-1-yl)ethyl)-2-phenyl-1-oxa-4-azacyclododec-8-ene-5,12-dione] showed a Kd (ShhN protein; [2]) of 100 to 1000 nM, an IC50 (Gli1) of under 100 nM and an IC50 (C3H10T1/2) of under 100 nM.

`O=C(C[C@@H]1C/C=C/CCC(=O)O[C@H](c2ccccc2)CNC1=O)N[C@@H]1CCCc2ccccc21` [Example CR, 2-((2R,6S,E)-5,12-dioxo-2-phenyl-1-oxa-4-azacyclododec-8-en-6-yl)-N—((R)-1,2,3,4-tetrahydronaphthalen-1-yl)acetamide] showed a Kd (ShhN protein; [2]) of under 100 nM, an IC50 (Gli1) of under 100 nM and an IC50 (C3H10T1/2) of under 100 nM.

Work on `O=C(C[C@@H]1C/C=C/CCC(=O)O[C@H](c2ccccc2)CNC1=O)NCCCC(F)(F)F` [Example CT, 2-((2R,6S,E)-5,12-dioxo-2-phenyl-1-oxa-4-azacyclododec-8-en-6-yl)-N-(4,4,4-trifluorobutyl)acetamide] yielded a Kd (ShhN protein; [2]) of under 100 nM, an IC50 (Gli1) of under 100 nM and an IC50 (C3H10T1/2) of under 100 nM.

In the case of `C[C@@H]1C/C=C/C[C@H](C)C(=O)N[C@H](c2ccccc2)COC1=O` [Example D, (3R,6S,11R,E)-6,11-dimethyl-3-phenyl-1-oxa-4-azacyclododec-8-ene-5,12-dione], the ring closure, yield of all isomers ([1]; from C=CC[C@@H](C)C(=O)OC[C@H](NC(=O)[C@@H](C)CC=C)c1ccccc1, Grubbs II, 20.0 mM, 25.0 °C, 12.0 h) is reported as 78%, the Kd (ShhN protein; [2]) is reported as under 100 nM and the IC50 (C3H10T1/2) is reported as 100 to 1000 nM.

`C[C@H]1[C@@H](c2ccccc2)OC(=O)CCCCC[C@@H](CC(=O)NCc2ccc(Cl)cc2)C(=O)N1C` [Example DC, N-(4-chlorobenzyl)-2-((2R,3S,6S)-3,4-dimethyl-5,12-dioxo-2-phenyl-1-oxa-4-azacyclododecan-6-yl)acetamide] showed a Kd (ShhN protein; [2]) of 100 to 1000 nM and an IC50 (C3H10T1/2) of 100 to 1000 nM.

Work on `O=C(C[C@@H]1C/C=C/CCC(=O)N[C@H](c2ccccc2)COC1=O)NCc1ccc(Cl)nc1` [Example DD, N-((6-chloropyridin-3-yl)methyl)-2-((3R,11S,E)-5,12-dioxo-3-phenyl-1-oxa-4-azacyclododec-8-en-11-yl)acetamide] yielded a Kd (ShhN protein; [2]) of under 100 nM and an IC50 (C3H10T1/2) of 100 to 1000 nM.

With `CC(C)N[C@H]1C/C=C/C[C@@H](CC(=O)NCc2ccc(Cl)cc2)C(=O)NC[C@@H](c2ccccc2)OC1=O` [Example DE, N-(4-chlorobenzyl)-2-((2R,6S,11S,E)-11-(isopropylamino)-5,12-dioxo-2-phenyl-1-oxa-4-azacyclododec-8-en-6-yl)acetamide] the Kd (ShhN protein; [2]) was 100 to 1000 nM and the IC50 (C3H10T1/2) was 100 to 1000 nM.

With `C[C@H]1C/C=C/C[C@@H](CC(=O)NCc2ccc(Cl)cc2)C(=O)NC[C@@H](c2ccccc2)OC1=O` [Example DF, N-(4-chlorobenzyl)-2-((2R,6S,11S,E)-11-methyl-5,12-dioxo-2-phenyl-1-oxa-4-azacyclododec-8-en-6-yl)acetamide] the Kd (ShhN protein; [2]) was 100 to 1000 nM and the IC50 (C3H10T1/2) was 100 to 1000 nM.

Molecule `C[C@H]1C/C=C/C[C@@H](CC(=O)NCc2ccc(Cl)cc2)C(=O)OC[C@@H](c2ccccc2)NC1=O` [Example DI, N-(4-chlorobenzyl)-2-((3R,6S,11S,E)-6-methyl-5,12-dioxo-3-phenyl-1-oxa-4-azacyclododec-8-en-11-yl)acetamide] has a Kd (ShhN protein; [2]) of 100 to 1000 nM and an IC50 (C3H10T1/2) of 1000 to 100000 nM.

For `CCN(CC)C(=O)C[C@@H]1C/C=C/CCC(=O)O[C@H](c2ccccc2)CNC1=O` [Example DO, 2-((2R,6S,E)-5,12-dioxo-2-phenyl-1-oxa-4-azacyclododec-8-en-6-yl)-N,N-diethylacetamide], the Kd (ShhN protein; [2]) was under 100 nM and the IC50 (C3H10T1/2) was 1000 to 100000 nM.

Molecule `O=C(C[C@@H]1C/C=C/CCC(=O)O[C@H](c2ccccc2)CNC1=O)NCc1ccc([N+](=O)[O-])cc1` [Example DQ, 2-((2R,6S,E)-5,12-dioxo-2-phenyl-1-oxa-4-azacyclododec-8-en-6-yl)-N-(4-nitrobenzyl)acetamide] has a Kd (ShhN protein) of 1000 to 100000 nM and an IC50 (C3H10T1/2) of over 100000 nM.

For `O=C(C[C@@H]1C/C=C/CCC(=O)O[C@H](c2ccccc2)CNC1=O)NCC1CCOCC1` [Example EF, 2-((2R,6S,E)-5,12-dioxo-2-phenyl-1-oxa-4-azacyclododec-8-en-6-yl)-N-((tetrahydro-2H-pyran-4-yl)methyl)acetamide], the Kd (ShhN protein; [2]) was 1000 to 100000 nM and the IC50 (Gli1) was 1000 to 100000 nM.

With `O=C1CC/C=C/C[C@@H](CC(=O)N2CCN(c3ccccc3)CC2)C(=O)NC[C@@H](c2ccccc2)O1` [Example ES, (2R,6S,E)-6-(2-oxo-2-(4-phenylpiperazin-1-yl)ethyl)-2-phenyl-1-oxa-4-azacyclododec-8-ene-5,12-dione] the Kd (ShhN protein; [2]) was 100 to 1000 nM and the IC50 (Gli1) was 100 to 1000 nM.

In the case of `O=C(C[C@@H]1C[C@H](O)[C@@H](O)CCC(=O)OC[C@@H]2CCCN2C1=O)NCc1ccc(Cl)cc1` [Example G, N-(4-chlorobenzyl)-2-((6S,7S,9S,14aS)-6,7-dihydroxy-3,10-dioxododecahydro-1H-pyrrolo[2,1-c][1,4]oxaazacyclododecin-9-yl)acetamide], the Kd (ShhN protein; [2]) is reported as 100 to 1000 nM and the IC50 (C3H10T1/2) is reported as 1000 to 100000 nM.

For `O=C1CC/C=C/C[C@@H](O)C(=O)OC[C@@H](c2ccccc2)N1` [Example H, (3R,11R,E)-11-hydroxy-3-phenyl-1-oxa-4-azacyclododec-8-ene-5,12-dione], the Kd (ShhN protein; [2]) was under 100 nM and the IC50 (C3H10T1/2) was 1000 to 100000 nM.

Work on `C[C@@H]1CCCCCC(=O)N[C@H](c2ccccc2)COC1=O` [Example J, (3R,11R)-11-methyl-3-phenyl-1-oxa-4-azacyclododecane-5,12-dione] yielded a Kd (ShhN protein; [2]) of under 100 nM and an IC50 (C3H10T1/2) of 1000 to 100000 nM.

`C[C@@H]1C/C=C/CC(F)(F)C(=O)N[C@H](c2ccccc2)COC1=O` [Example K, (3R,11R,E)-6,6-difluoro-11-methyl-3-phenyl-1-oxa-4-azacyclododec-8-ene-5,12-dione] gave a ring closure, yield of all isomers ([1]; from C=CC[C@@H](C)C(=O)OC[C@H](NC(=O)C(F)(F)CC=C)c1ccccc1) of 84%, a Kd (ShhN protein; [2]) of 100 to 1000 nM and an IC50 (C3H10T1/2) of over 100000 nM.

With `C[C@@H]1C/C=C/C[C@@H](N)C(=O)N[C@H](c2ccccc2)COC1=O` [Example M, (3R,6R,11R,E)-6-amino-11-methyl-3-phenyl-1-oxa-4-azacyclododec-8-ene-5,12-dione] the Kd (ShhN protein; [2]) was 100 to 1000 nM and the IC50 (C3H10T1/2) was over 100000 nM.

For `CC(=O)N[C@@H]1C/C=C/C[C@@H](C)C(=O)OC[C@@H](c2ccccc2)NC1=O` [Example N, N-((3R,6R,11R,E)-11-methyl-5,12-dioxo-3-phenyl-1-oxa-4-azacyclododec-8-en-6-yl)acetamide], the Kd (ShhN protein; [2]) was 100 to 1000 nM and the IC50 (C3H10T1/2) was over 100000 nM.

In the case of `O=C(O)C[C@@H]1C/C=C/CCC(=O)O[C@H](c2ccccc2)CNC1=O` [GC, 2-((2R,6S,E)-5,12-dioxo-2-phenyl-1-oxa-4-azacyclododec-8-en-6-yl)acetic acid], the Kd (ShhN protein; [2]) is reported as over 100000 nM and the IC50 (Gli1) is reported as over 100000 nM.

`CN1C(=O)CC/C=C/C[C@@H](CC(=O)NCc2ccc(Cl)cc2)C(=O)OC[C@H]1c1ccccc1` [GH, N-(4-chlorobenzyl)-2-((3R,11S,E)-4-methyl-5,12-dioxo-3-phenyl-1-oxa-4-azacyclododec-8-en-11-yl)acetamide] gave a Kd (ShhN protein; [2]) of 1000 to 100000 nM and an IC50 (Gli1) of 1000 to 100000 nM.
